Assay results: patent US20030215462A1, “Use of UGT inhibitors to increase bioavailability” (priority 2001, published 2003)
Where “and” joins values, the source holds several entries; their conditions need not be identical. Equal values may be shown once.

Columns and labels:
UGT1A3 = molecular target: T1, UGT1A3 (Homo sapiens, UniProt P35503); test: Inhibition of raloxifene glucuronidation by recombinant UGT1A3 Supersomes; details: UGT1A3
T1 sequence (P35503 29-534): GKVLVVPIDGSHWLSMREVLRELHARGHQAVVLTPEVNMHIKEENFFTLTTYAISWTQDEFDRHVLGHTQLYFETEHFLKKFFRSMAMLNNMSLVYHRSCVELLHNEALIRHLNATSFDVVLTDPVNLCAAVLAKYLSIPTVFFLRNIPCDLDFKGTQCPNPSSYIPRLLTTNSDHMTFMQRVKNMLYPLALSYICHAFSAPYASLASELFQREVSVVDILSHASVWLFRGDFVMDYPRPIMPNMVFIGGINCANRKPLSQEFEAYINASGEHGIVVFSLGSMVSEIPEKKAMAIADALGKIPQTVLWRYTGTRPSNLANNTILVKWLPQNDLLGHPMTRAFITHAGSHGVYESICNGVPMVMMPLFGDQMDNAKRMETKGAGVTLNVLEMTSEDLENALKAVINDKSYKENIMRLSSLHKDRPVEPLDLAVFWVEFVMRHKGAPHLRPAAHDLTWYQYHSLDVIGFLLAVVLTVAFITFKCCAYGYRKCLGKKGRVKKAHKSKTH
Method: (§1) Compounds were eluted using a binary solvent gradient system. Solvent A was water brought to pH 8 with NH4OH. Solvent B was methanol. Solvent flow rate was 1 ml/min and the column temperature was maintained at 50° C. Detection was at 280 nm. […] The system was then returned to the initial conditions and equilibrated for 3 min.

[1] = test system: UGT enzymes of human liver microsomes; test: Inhibition of raloxifene glucuronidation (G1, G2) in human liver microsomes; format: biochemical; details: for % of control metabolism (SD, n = 3), raloxifene glucuronide G1 / % of control metabolism (SD, n = 3), raloxifene glucuronide G2: human liver microsomes 250 μg/ml, 15 min
From the text: Compounds were eluted using a binary solvent gradient system. […] Solvent B was methanol. […] Detection was at 280 nm.

UGT1A1 = molecular target: T2, UGT1A1 (Homo sapiens, UniProt P22309); test: Inhibition of raloxifene glucuronidation by recombinant UGT1A1 Supersomes; details: UGT1A1
T2 sequence (P22309 26-533): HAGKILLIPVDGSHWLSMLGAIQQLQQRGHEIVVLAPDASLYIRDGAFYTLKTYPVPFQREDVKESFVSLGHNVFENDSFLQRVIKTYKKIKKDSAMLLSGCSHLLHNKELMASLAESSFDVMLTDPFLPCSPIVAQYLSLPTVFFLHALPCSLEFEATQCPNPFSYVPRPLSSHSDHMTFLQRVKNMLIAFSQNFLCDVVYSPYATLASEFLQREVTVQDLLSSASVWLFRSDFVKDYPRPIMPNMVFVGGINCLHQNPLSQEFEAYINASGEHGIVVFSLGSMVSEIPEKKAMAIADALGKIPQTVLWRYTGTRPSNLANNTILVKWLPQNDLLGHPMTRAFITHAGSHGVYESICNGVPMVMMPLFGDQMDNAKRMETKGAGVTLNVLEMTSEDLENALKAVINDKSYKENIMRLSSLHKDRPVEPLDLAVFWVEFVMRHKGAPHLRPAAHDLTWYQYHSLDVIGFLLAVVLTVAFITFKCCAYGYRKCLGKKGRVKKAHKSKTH
Method: as §1

UGT1A9 = molecular target: T3, UGT1A9 (Homo sapiens, UniProt O60656); test: Inhibition of raloxifene glucuronidation by recombinant UGT1A9 Supersomes; details: UGT1A9
T3 sequence (O60656 26-530): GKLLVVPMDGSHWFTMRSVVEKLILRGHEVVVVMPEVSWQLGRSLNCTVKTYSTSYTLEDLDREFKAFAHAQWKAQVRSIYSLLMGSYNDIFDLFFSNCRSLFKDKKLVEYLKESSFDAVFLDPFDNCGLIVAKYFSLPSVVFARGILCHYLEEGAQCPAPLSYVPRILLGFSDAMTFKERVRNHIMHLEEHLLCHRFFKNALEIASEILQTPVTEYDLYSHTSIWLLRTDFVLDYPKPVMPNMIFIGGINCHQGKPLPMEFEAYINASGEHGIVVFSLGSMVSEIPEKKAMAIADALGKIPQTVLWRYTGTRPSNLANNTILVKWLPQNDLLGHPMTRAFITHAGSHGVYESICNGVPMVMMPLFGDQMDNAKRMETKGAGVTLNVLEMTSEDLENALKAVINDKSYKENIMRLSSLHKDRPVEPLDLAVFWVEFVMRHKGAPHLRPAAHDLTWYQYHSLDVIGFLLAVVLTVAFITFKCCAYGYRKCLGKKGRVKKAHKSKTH
Method: as §1

[2] = test system: UGT enzymes of pooled human jejunum microsomes; test: Inhibition of estradiol (E2) glucuronidation in pooled human jejunum microsomes; format: biochemical; details: jejunum HJ61; E2 50 μM; inhibitor 50 μM
From the text: Compounds were eluted using a binary solvent gradient system where solvent A was dilute phosphoric acid (pH 3) and solvent B was 80:20 acetonitrile-methanol. […] Detection was at 280 nm.

[3] = inhibitor 10 μM, raloxifene 50 μM
[4] = inhibitor 25 μM, raloxifene 50 μM
[5] = inhibitor 50 μM, raloxifene 50 μM
[6] = inhibitor 100 μM, raloxifene 50 μM
[7] = inhibitor 500 μM, raloxifene 50 μM
[8] = liver lot 032101, inhibitor 50 μM
[9] = liver lot 062101, inhibitor 50 μM
[10] = liver lot 083000, inhibitor 50 μM
[11] = raloxifene 50 μM, inhibitor 10 μM
[12] = raloxifene 50 μM, inhibitor 25 μM
[13] = raloxifene 50 μM, inhibitor 50 μM
[14] = raloxifene 50 μM, inhibitor 100 μM

% of control metabolism (SD, n = 3), raloxifene glucuronide G1 [1, 4] | % of control metabolism (SD, n = 3), raloxifene glucuronide G1 [1, 5] | % of control metabolism (SD, n = 3), raloxifene glucuronide G1 [1, 6] | % of control metabolism (SD, n = 3), raloxifene glucuronide G1 [1, 7] | % of control metabolism (SD, n = 3), raloxifene glucuronide G2 [1, 4] | % of control metabolism (SD, n = 3), raloxifene glucuronide G2 [1, 5] | % of control metabolism (SD, n = 3), raloxifene glucuronide G2 [1, 6] | % of control metabolism (SD, n = 3), raloxifene glucuronide G2 [1, 7] | % of control metabolism, raloxifene G1 [1, 12] | % of control metabolism, raloxifene G2 [1, 12] | % of control metabolism, raloxifene G1 [1, 13] | % of control metabolism, raloxifene G2 [1, 13] | % of control metabolism, raloxifene G1 [1, 14] | % of control metabolism, raloxifene G2 [1, 14] | Compound | other results
 |  |  |  |  |  |  |  |  |  |  |  |  |  | C=CCc1ccc(O)c(OC)c1 [Eugenol] | inhibition of raloxifene glucuronidation, in words (UGT1A3): ineffective; % of control metabolism, raloxifene G1 ([1]; 50 µM): 39 (0), 41 (3) % and 65 (1), 63 (3) % and 69 (4), 53 (2) %; % of control metabolism, raloxifene G2 ([1]; 50 µM): 39 (0), 41 (3) % and 65 (1), 63 (3) % and 69 (4), 53 (2) %; inhibition of raloxifene glucuronidation, in words (UGT1A1): ineffective; inhibition of raloxifene glucuronidation, in words (UGT1A9): amongst the best inhibitors
48 (4) % | 37 (3) % | 20 (0) % | 0 (0) % | 55 (5) % | 43 (4) % | 24 (2) % | 0 (0) % | 48 (4) % | 55 (5) % | 37 (3) % | 43 (4) % | 20 (0) % | 24 (2) % | O=C(O[C@@H]1Cc2c(O)cc(O)cc2O[C@@H]1c1ccc(O)c(O)c1)c1cc(O)c(O)c(O)c1 [Epicatechin gallate] | % of control metabolism (SD, n = 3), raloxifene glucuronide G1 [1, 3]: 77 (4) %; % of control metabolism (SD, n = 3), raloxifene glucuronide G2 [1, 3]: 73 (4) %; % of control metabolism, raloxifene G1 [1, 8]: 47 (4) %; % of control metabolism, raloxifene G2 [1, 8]: 45 (2) %; % of control metabolism, raloxifene G1 [1, 9]: 63 (4) %; % of control metabolism, raloxifene G2 [1, 9]: 37 (2) %; % of control metabolism, raloxifene G1 [1, 10]: 37 (3) %; % of control metabolism, raloxifene G2 [1, 10]: 43 (4) %; % of control metabolism, raloxifene G1 [1, 11]: 77 (4) %; % of control metabolism, raloxifene G2 [1, 11]: 73 (4) %; residual metabolism (% of control), E2-3-β-D-glucuronide [2]: 26 (1) %; residual metabolism (% of control), E2-17-β-D-glucuronide [2]: 61 (4) %
 |  |  | 104 (11) % |  |  |  | 102 (4) % |  |  |  |  |  |  | CC(CCc1ccccc1)NCC(O)c1ccc(O)c(C(N)=O)c1 (centres unmarked) [Labetalol, labetalol] | 
58 (4) % | 45 (6) % | 48 (2) % | 21 (1) % | 60 (4) % | 48 (6) % | 52 (3) % | 33 (2) % | 58 (4) % | 60 (4) % | 45 (6) % | 48 (6) % | 48 (2) % | 52 (3) % | CCCOC(=O)c1cc(O)c(O)c(O)c1 [Propyl gallate] | 
